Laboratory results reported in patent US20250241891A1, “TREATMENT OF ANXIETY” (GH RESEARCH IRELAND LIMITED, priority 2022, published 2025).

What was measured:
[1] = Pharmacokinetics of 5-MeO-DMT and bufotenine after inhalation; format: in vivo, human
Experimental: Blood samples were obtained at 1; 2; 4; 7; 10; 15; 20; 30; 45 min and 1; 1.5; 2; 3; 4 hours after administration.
PK parameters were generated by algebraic analysis of the concentration versus time plots for each individual. The analysis was carried out using the software Phoenix WinNonlin 6.3.

[2] = tested on: patients with treatment-resistant major depressive disorder (TRD); assay: Phase 1/2 clinical trial of inhaled 5-MeO-DMT in TRD (MADRS, BPRS, safety); conditions: for patients experiencing at least one ADR: n=4, all ADRs mild and resolved spontaneously
Experimental: Patients were assigned to different groups. In the context of the present invention, the group who received a single, 12 mg dose and the group who underwent an intra-day individualized dosing regimen (IDR) that allowed for multiple, escalating doses (6 mg, 12 mg and 18 mg) within a single day, driven by the intensity of the patient-reported psychedelic experience are of interest.
The data gathered include the assessment of the treated patients against several scales including the Montgomery-Åsberg Depression Rating Scale (MADRS) and the Brief Psychiatric Rating Scale (BPRS).
This trial was designed in two parts. Part A was an open-label, single-arm, single-dose Phase 1 trial with two dose levels (12 mg (n=4) and 18 mg (n=4)). […] The primary endpoint of Part B was to assess the effects on the severity of depression, as assessed by the proportion of patients in remission on day seven after dosing, defined as a MADRS total score of less than or equal to 10.

[3] = TRD, IDR 6/12/18 mg inhaled, sum n=8, 2 h after last dose, baseline 26
[4] = TRD, IDR 6/12/18 mg inhaled, sum n=8, 2 h after last dose, baseline 28
[5] = TRD, IDR 6/12/18 mg inhaled, sum n=8, 3 h after last dose, baseline 37
[6] = TRD, IDR 6/12/18 mg inhaled, sum n=8, day 1, baseline 25
[7] = TRD, IDR 6/12/18 mg inhaled, sum n=8, day 1, baseline 26
[8] = TRD, IDR 6/12/18 mg inhaled, sum n=8, day 1, baseline 37
[9] = TRD, IDR 6/12/18 mg inhaled, sum n=8, day 7, baseline 25
[10] = TRD, IDR 6/12/18 mg inhaled, sum n=8, day 7, baseline 26
[11] = TRD, IDR 6/12/18 mg inhaled, sum n=8, day 7, baseline 30
[12] = TRD, IDR 6/12/18 mg inhaled, sum n=8, day 7, baseline 37
[13] = TRD, single 12 mg inhaled, sum n=4, 2 h after dose, baseline 13
[14] = TRD, single 12 mg inhaled, sum n=4, 2 h after dose, baseline 16
[15] = TRD, single 12 mg inhaled, sum n=4, 3 h after dose, baseline 18
[16] = TRD, single 12 mg inhaled, sum n=4, 3 h after dose, baseline 25
[17] = TRD, single 12 mg inhaled, sum n=4, day 1, baseline 12
[18] = TRD, single 12 mg inhaled, sum n=4, day 1, baseline 13
[19] = TRD, single 12 mg inhaled, sum n=4, day 1, baseline 16
[20] = TRD, single 12 mg inhaled, sum n=4, day 1, baseline 25
[21] = TRD, single 12 mg inhaled, sum n=4, day 7, baseline 12
[22] = TRD, single 12 mg inhaled, sum n=4, day 7, baseline 13
[23] = TRD, single 12 mg inhaled, sum n=4, day 7, baseline 16
[24] = TRD, single 12 mg inhaled, sum n=4, day 7, baseline 25

With `COc1ccc2[nH]cc(CCN(C)C)c2c1` [5-MeO-DMT] the “detectability in the plasma” value ([1]; 3 hours after inhalation, whole dose range 6, 12, 18 mg) was “no longer detectable”, the “pharmacokinetic measurements with uptitration dosing schemes compared with single doses” value ([1]; inhalation, uptitration) was “Substantially similar results were obtained” and the “accumulation upon repeated administration” value ([1]; repeated inhalation within a time frame of 1 to 4 hours) was “No accumulation is observed”. The “patients experiencing at least one ADR” value ([2]; Part A, single 12 mg inhaled) was 3 of 4, the SAEs ([2]; Part A, single 12 mg or 18 mg inhaled) was “No SAEs were reported” and the “patients experiencing at least one ADR” value ([2]; Part A, single 18 mg inhaled) was 3 of 4. The SAEs ([2]; Part B, IDR 6/12/18 mg inhaled, n=8) was “No SAEs were reported”, the “MADRS Suicidal Thoughts score” value ([2]; TRD, IDR 6/12/18 mg inhaled, sum n=8, 2 h after last dose, baseline 11) was 3 and the “MADRS Inner Tension percentage improvement” value [2, 3] was 58%. The “MADRS Inner Tension score” value [2, 3] was 11, the “MADRS Lassitude score” value ([2]; TRD, IDR 6/12/18 mg inhaled, sum n=8, 2 h after last dose, baseline 27) was 10 and the “MADRS Pessimistic Thoughts percentage improvement” value [2, 4] was 75.00%. The “MADRS Pessimistic Thoughts score” value [2, 4] was 7, the “MADRS Concentration Difficulties score” value ([2]; TRD, IDR 6/12/18 mg inhaled, sum n=8, 2 h after last dose, baseline 30) was 11 and the “MADRS Inability to Feel score” value ([2]; TRD, IDR 6/12/18 mg inhaled, sum n=8, 2 h after last dose, baseline 36) was 12. The “BPRS Emotional Withdrawal score” value ([2]; TRD, IDR 6/12/18 mg inhaled, sum n=8, 3 h after last dose, baseline 13) was 8, the “BPRS Blunted Affect score” value ([2]; TRD, IDR 6/12/18 mg inhaled, sum n=8, 3 h after last dose, baseline 15) was 11 and the “BPRS Tension score” value ([2]; TRD, IDR 6/12/18 mg inhaled, sum n=8, 3 h after last dose, baseline 16) was 11. The “BPRS Guilt Feelings score” value ([2]; TRD, IDR 6/12/18 mg inhaled, sum n=8, 3 h after last dose, baseline 34) was 14, the “BPRS Anxiety percentage improvement” value [2, 5] was 49% and the “BPRS Anxiety score” value [2, 5] was 19. For the same molecule, the “MADRS Suicidal Thoughts score” value ([2]; TRD, IDR 6/12/18 mg inhaled, sum n=8, day 1, baseline 11) was 1, the “BPRS Emotional Withdrawal score” value ([2]; TRD, IDR 6/12/18 mg inhaled, sum n=8, day 1, baseline 13) was 8 and the “BPRS Blunted Affect score” value ([2]; TRD, IDR 6/12/18 mg inhaled, sum n=8, day 1, baseline 15) was 8. For the same molecule, the “BPRS Tension score” value ([2]; TRD, IDR 6/12/18 mg inhaled, sum n=8, day 1, baseline 16) was 11, the “MADRS Reduced Sleep percentage improvement” value [2, 6] was 52% and the “MADRS Reduced Sleep score” value [2, 6] was 12. The “MADRS Inner Tension percentage improvement” value [2, 7] was 77%, the “MADRS Inner Tension score” value [2, 7] was 6 and the “MADRS Lassitude score” value ([2]; TRD, IDR 6/12/18 mg inhaled, sum n=8, day 1, baseline 27) was 5. For the same molecule, the “MADRS Pessimistic Thoughts score” value ([2]; TRD, IDR 6/12/18 mg inhaled, sum n=8, day 1, baseline 28) was 4, the “MADRS Concentration Difficulties score” value ([2]; TRD, IDR 6/12/18 mg inhaled, sum n=8, day 1, baseline 30) was 1 and the “BPRS Guilt Feelings score” value ([2]; TRD, IDR 6/12/18 mg inhaled, sum n=8, day 1, baseline 34) was 11. The “MADRS Inability to Feel score” value ([2]; TRD, IDR 6/12/18 mg inhaled, sum n=8, day 1, baseline 36) was 2, the “BPRS Anxiety percentage improvement” value [2, 8] was 57% and the “BPRS Anxiety score” value [2, 8] was 16. The “MADRS Suicidal Thoughts score” value ([2]; TRD, IDR 6/12/18 mg inhaled, sum n=8, day 7, baseline 11) was 3, the “BPRS Emotional Withdrawal score” value ([2]; TRD, IDR 6/12/18 mg inhaled, sum n=8, day 7, baseline 13) was 8 and the “BPRS Blunted Affect score” value ([2]; TRD, IDR 6/12/18 mg inhaled, sum n=8, day 7, baseline 15) was 8. For the same molecule, the “BPRS Tension score” value ([2]; TRD, IDR 6/12/18 mg inhaled, sum n=8, day 7, baseline 16) was 10, the “MADRS Reduced Sleep percentage improvement” value [2, 9] was 64% and the “MADRS Reduced Sleep score” value [2, 9] was 9. For the same molecule, the “MADRS Inner Tension percentage improvement” value [2, 10] was 54%, the “MADRS Inner Tension score” value [2, 10] was 12 and the “MADRS Lassitude score” value ([2]; TRD, IDR 6/12/18 mg inhaled, sum n=8, day 7, baseline 27) was 3. For the same molecule, the “MADRS Pessimistic Thoughts score” value ([2]; TRD, IDR 6/12/18 mg inhaled, sum n=8, day 7, baseline 28) was 3, the “MADRS Concentration Difficulties percentage improvement” value [2, 11] was 70.00% and the “MADRS Concentration Difficulties score” value [2, 11] was 9. For the same molecule, the “BPRS Guilt Feelings score” value ([2]; TRD, IDR 6/12/18 mg inhaled, sum n=8, day 7, baseline 34) was 10, the “MADRS Inability to Feel score” value ([2]; TRD, IDR 6/12/18 mg inhaled, sum n=8, day 7, baseline 36) was 6 and the “BPRS Anxiety percentage improvement” value [2, 12] was 54%. For the same molecule, the “BPRS Anxiety score” value [2, 12] was 17, the “MADRS Suicidal Thoughts score” value ([2]; TRD, single 12 mg inhaled, sum n=4, 2 h after dose, baseline 8) was 3 and the “MADRS Inner Tension percentage improvement” value [2, 13] was 85%. For the same molecule, the “MADRS Inner Tension score” value [2, 13] was 2, the “MADRS Concentration Difficulties score” value [2, 14] was 7 and the “MADRS Inability to Feel score” value [2, 14] was 9. The “MADRS Lassitude score” value [2, 14] was 10, the “MADRS Pessimistic Thoughts percentage improvement” value [2, 14] was 50.00% and the “MADRS Pessimistic Thoughts score” value [2, 14] was 8. For the same molecule, the “BPRS Blunted Affect score” value ([2]; TRD, single 12 mg inhaled, sum n=4, 3 h after dose, baseline 11) was 8, the “BPRS Emotional Withdrawal score” value ([2]; TRD, single 12 mg inhaled, sum n=4, 3 h after dose, baseline 13) was 11 and the “BPRS Tension score” value ([2]; TRD, single 12 mg inhaled, sum n=4, 3 h after dose, baseline 14) was 9. The “BPRS Guilt Feelings percentage improvement” value [2, 15] was 50.00%, the “BPRS Guilt Feelings score” value [2, 15] was 9 and the “BPRS Anxiety percentage improvement” value [2, 16] was 56%. The “BPRS Anxiety score” value [2, 16] was 11, the “MADRS Suicidal Thoughts score” value ([2]; TRD, single 12 mg inhaled, sum n=4, day 1, baseline 8) was 5 and the “BPRS Blunted Affect score” value ([2]; TRD, single 12 mg inhaled, sum n=4, day 1, baseline 11) was 6. The “MADRS Reduced Sleep percentage improvement” value [2, 17] was 17%, the “MADRS Reduced Sleep score” value [2, 17] was 10 and the “BPRS Emotional Withdrawal score” value [2, 18] was 8. The “MADRS Inner Tension percentage improvement” value [2, 18] was 77%, the “MADRS Inner Tension score” value [2, 18] was 3 and the “BPRS Tension score” value ([2]; TRD, single 12 mg inhaled, sum n=4, day 1, baseline 14) was 6. For the same molecule, the “MADRS Concentration Difficulties score” value [2, 19] was 2, the “MADRS Inability to Feel score” value [2, 19] was 1 and the “MADRS Lassitude percentage improvement” value [2, 19] was 100.00%. For the same molecule, the “MADRS Lassitude score” value [2, 19] was 0, the “MADRS Pessimistic Thoughts score” value [2, 19] was 7 and the “BPRS Guilt Feelings score” value ([2]; TRD, single 12 mg inhaled, sum n=4, day 1, baseline 18) was 5. The “BPRS Anxiety percentage improvement” value [2, 20] was 76%, the “BPRS Anxiety score” value [2, 20] was 6 and the “MADRS Suicidal Thoughts score” value ([2]; TRD, single 12 mg inhaled, sum n=4, day 7, baseline 8) was 7. For the same molecule, the “BPRS Blunted Affect score” value ([2]; TRD, single 12 mg inhaled, sum n=4, day 7, baseline 11) was 5, the “MADRS Reduced Sleep percentage improvement” value [2, 21] was 50% and the “MADRS Reduced Sleep score” value [2, 21] was 6. The “BPRS Emotional Withdrawal score” value [2, 22] was 6, the “MADRS Inner Tension percentage improvement” value [2, 22] was 62% and the “MADRS Inner Tension score” value [2, 22] was 5. For the same molecule, the “BPRS Tension score” value ([2]; TRD, single 12 mg inhaled, sum n=4, day 7, baseline 14) was 6, the “MADRS Concentration Difficulties score” value [2, 23] was 3 and the “MADRS Inability to Feel score” value [2, 23] was 1. For the same molecule, the “MADRS Lassitude score” value [2, 23] was 3, the “MADRS Pessimistic Thoughts percentage improvement” value [2, 23] was 50.00% and the “MADRS Pessimistic Thoughts score” value [2, 23] was 8. For the same molecule, the “BPRS Guilt Feelings score” value ([2]; TRD, single 12 mg inhaled, sum n=4, day 7, baseline 18) was 5, the “BPRS Anxiety percentage improvement” value [2, 24] was 76% and the “BPRS Anxiety score” value [2, 24] was 6.
